Results published in patent US20250353820A1, “ANTIVIRAL PYRAZOLOPYRIDINONE COMPOUNDS” (Novartis AG, priority 2019, published 2025).

Each compound was assayed against human HSV DNA polymerase UL30 (Human herpesvirus 1 (strain 17) (HHV-1) (Human herpes simplex virus 1), UniProt P04293) (assay: biochemical). Conditions: 625 pM HSV polymerase, 20 minutes at room temperature; read-out: HSV-polymerase Biochemical IC50.

Question: With Cn1nc(C2=NOC(c3ccc(C#N)cc3)C2)c2c1C(=O)N(CC1(S(=O)(=O)C3CC3)CC1)CC2 (stereo not shown) [Example 31, 4-(3-(6-((1-(Cyclopropylsulfonyl)cyclopropyl)methyl)-1-methyl-7-oxo-4,5,6,7-tetrahydro-1H-pyrazolo[3,4-c]pyridin-3-yl)-4,5-dihydroisoxazol-5-yl)benzonitrile] as the compound, how does the IC50 read?
Answer: 293 nM

Question: With Cn1nc(-c2cc(Cc3ccc(C#N)cc3)on2)c2c1C(=O)N(CC1(S(=O)(=O)C3CC3)CC1)CC2 [Example 34, 4-((3-(6-((1-(Cyclopropylsulfonyl)cyclopropyl)methyl)-1-methyl-7-oxo-4,5,6,7-tetrahydro-1H-pyrazolo[3,4-c]pyridin-3-yl)isoxazol-5-yl)methyl)benzonitrile] as the compound, how does the IC50 read?
Answer: 10 nM

Question: With Cn1nc(-c2cn(Cc3ccc(C#N)cc3)nn2)c2c1C(=O)N(CC1(S(=O)(=O)C3CC3)CC1)CC2 [Example 35, 4-((4-(6-((1-(Cyclopropylsulfonyl)cyclopropyl)methyl)-1-methyl-7-oxo-4,5,6,7-tetrahydro-1H-pyrazolo[3,4-c]pyridin-3-yl)-1H-1,2,3-triazol-1-yl)methyl)benzonitrile] as the compound, how does the IC50 read?
Answer: 141 nM

Question: Which IC50 does the source give for Cn1nc(C(=O)NCc2ccc(Cl)cc2)c2c1C(=O)N(CC1(S(=O)(=O)C(F)F)CC1)CC2 [Example 39, N-(4-Chlorobenzyl)-6-((1-((difluoromethyl)sulfonyl)cyclopropyl)methyl)-1-methyl-7-oxo-4,5,6,7-tetrahydro-1H-pyrazolo[3,4-c]pyridine-3-carboxamide] here?
Answer: 625 nM

Question: N#Cc1ccc(CNC(=O)c2nn(C3CC3)c3c2CCN(CC2(S(=O)(=O)C4CC4)CC2)C3=O)cc1 [Example 43, N-(4-Cyanobenzyl)-1-cyclopropyl-6-((1-(cyclopropylsulfonyl)cyclopropyl)methyl)-7-oxo-4,5,6,7-tetrahydro-1H-pyrazolo[3,4-c]pyridine-3-carboxamide] was tested. Which IC50 did it give?
Answer: 101 nM

Question: For O=C(NCc1ccc(Cl)cc1)c1n[nH]c2c1CCN(CC1(S(=O)(=O)C3CC3)CC1)C2=O [Example 44, N-(4-Chlorobenzyl)-6-((1-(cyclopropylsulfonyl)cyclopropyl)methyl)-7-oxo-4,5,6,7-tetrahydro-1H-pyrazolo[3,4-c]pyridine-3-carboxamide], which IC50 is on record?
Answer: 137 nM

Question: How did the IC50 turn out when CS(=O)(=O)C1(CN2CCc3c(nn4c3C(=O)N(Cc3ccc(C#N)cc3)CC4)C2=O)CC1 [Example 46, 4-((8-((1-(Methylsulfonyl)cyclopropyl)methyl)-1,7-dioxo-3,4,7,8,9,10-hexahydropyrido[3′,4′: 3,4]pyrazolo[1,5-a]pyrazin-2 (1H)-yl)methyl)benzonitrile] was run?
Answer: 1780 nM

Question: N#Cc1ccc(CNC(=O)c2nn(CC3(CO)CC3)c3c2CCN(CC2(S(=O)(=O)C4CC4)CC2)C3=O)cc1 [Example 47, N-(4-Cyanobenzyl)-6-((1-(cyclopropylsulfonyl)cyclopropyl)methyl)-1-((1-(hydroxymethyl)cyclopropyl)methyl)-7-oxo-4,5,6,7-tetrahydro-1H-pyrazolo[3,4-c]pyridine-3-carboxamide] was tested. Which IC50 did it give?
Answer: 59 nM

Question: For CS(=O)(=O)C1(CN2CCc3c(C(=O)NCc4ccc(C#N)cc4)nn(CC4(CO)CC4)c3C2=O)CC1 [Example 48, N-(4-Cyanobenzyl)-1-((1-(hydroxymethyl)cyclopropyl)methyl)-6-((1-(methylsulfonyl)cyclopropyl)methyl)-7-oxo-4,5,6,7-tetrahydro-1H-pyrazolo[3,4-c]pyridine-3-carboxamide], which IC50 is on record?
Answer: 801 nM

Question: How did the IC50 turn out when CC(C)(CO)S(=O)(=O)C1(CN2CCc3c(C(=O)NCc4ccc(C#N)cc4)n[nH]c3C2=O)CC1 [Example 49, N-(4-cyanobenzyl)-6-((1-((1-hydroxy-2-methylpropan-2-yl)sulfonyl)cyclopropyl)methyl)-7-oxo-4,5,6,7-tetrahydro-1H-pyrazolo[3,4-c]pyridine-3-carboxamide] was run?
Answer: 37 nM

Question: How did the IC50 turn out when Cn1nc(C(=O)NCc2ccc(Cl)cc2)c2c1C(=O)N(CC1(S(=O)(=O)C(C)(C)CO)CC1)CC2 [Example 50, N-(4-Chlorobenzyl)-6-((1-((1-hydroxy-2-methylpropan-2-yl)sulfonyl)cyclopropyl)methyl)-1-methyl-7-oxo-4,5,6,7-tetrahydro-1H-pyrazolo[3,4-c]pyridine-3-carboxamide] was run?
Answer: 16 nM

Question: For Cn1nc(C(=O)NCc2ccc(Cl)nc2)c2c1C(=O)N(CC1(S(=O)(=O)C(C)(C)CO)CC1)CC2 [Example 51, N-((6-Chloropyridin-3-yl)methyl)-6-((1-((1-hydroxy-2-methylpropan-2-yl)sulfonyl)cyclopropyl)methyl)-1-methyl-7-oxo-4,5,6,7-tetrahydro-1H-pyrazolo[3,4-c]pyridine-3-carboxamide], which IC50 is on record?
Answer: 89 nM

Question: How did the IC50 turn out when Cn1nc(C(=O)NCc2ccc(C#N)cc2)c2c1C(=O)N(CC1(S(=O)(=O)C(C)(C)CO)CC1)CC2 [Example 52, N-(4-Cyanobenzyl)-6-((1-((1-hydroxy-2-methylpropan-2-yl)sulfonyl)cyclopropyl)methyl)-1-methyl-7-oxo-4,5,6,7-tetrahydro-1H-pyrazolo[3,4-c]pyridine-3-carboxamide] was run?
Answer: 19 nM

Question: Which IC50 does the source give for Cn1nc(C(=O)NCc2ccc(F)cc2)c2c1C(=O)N(CC1(S(=O)(=O)C(C)(C)CO)CC1)CC2 [Example 53, N-(4-Fluorobenzyl)-6-((1-((1-hydroxy-2-methylpropan-2-yl)sulfonyl)cyclopropyl)methyl)-1-methyl-7-oxo-4,5,6,7-tetrahydro-1H-pyrazolo[3,4-c]pyridine-3-carboxamide] here?
Answer: 70 nM

Question: How did the IC50 turn out when C[C@H](NC(=O)c1nn(C)c2c1CCN(CC1(S(=O)(=O)C(C)(C)CO)CC1)C2=O)c1ccc(C#N)cc1 [Example 54, (S)-N-(1-(4-Cyanophenyl)ethyl)-6-((1-((1-hydroxy-2-methylpropan-2-yl)sulfonyl)cyclopropyl)methyl)-1-methyl-7-oxo-4,5,6,7-tetrahydro-1H-pyrazolo[3,4-c]pyridine-3-carboxamide] was run?
Answer: 103 nM

Question: For C[C@@H](NC(=O)c1nn(C)c2c1CCN(CC1(S(=O)(=O)C(C)(C)CO)CC1)C2=O)c1ccc(C#N)cc1 [Example 55, (R)-N-(1-(4-Cyanophenyl)ethyl)-6-((1-((1-hydroxy-2-methylpropan-2-yl)sulfonyl)cyclopropyl)methyl)-1-methyl-7-oxo-4,5,6,7-tetrahydro-1H-pyrazolo[3,4-c]pyridine-3-carboxamide], which IC50 is on record?
Answer: > 25000 nM

Question: With Cn1nc(C(=O)NCc2ccc(C#N)cc2)c2c1C(=O)N(CC1(S(=O)(=O)C(C)(C)COC(F)F)CC1)CC2 [Example 58, N-(4-Cyanobenzyl)-6-((1-((1-(difluoromethoxy)-2-methylpropan-2-yl)sulfonyl)cyclopropyl)methyl)-1-methyl-7-oxo-4,5,6,7-tetrahydro-1H-pyrazolo[3,4-c]pyridine-3-carboxamide] as the compound, how does the IC50 read?
Answer: 24 nM

Question: For Cn1nc(C(=O)NCc2ccc(C#N)cc2)c2c1C(=O)N(CC1(S(=O)(=O)C(C)(C)C#N)CC1)CC2 [Example 59, N-(4-Cyanobenzyl)-6-((1-((2-cyanopropan-2-yl)sulfonyl)cyclopropyl)methyl)-1-methyl-7-oxo-4,5,6,7-tetrahydro-1H-pyrazolo[3,4-c]pyridine-3-carboxamide], which IC50 is on record?
Answer: 23 nM

Question: With Cn1nc(C(=O)NCc2ccc(C#N)cc2)c2c1C(=O)N(CC1(S(=O)(=O)C(C)(C)CN3CC(F)C3)CC1)CC2 [Example 60, N-(4-Cyanobenzyl)-6-((1-((1-(3-fluoroazetidin-1-yl)-2-methylpropan-2-yl)sulfonyl)cyclopropyl)methyl)-1-methyl-7-oxo-4,5,6,7-tetrahydro-1H-pyrazolo[3,4-c]pyridine-3-carboxamide] as the compound, how does the IC50 read?
Answer: 45 nM

Question: Which IC50 does the source give for Cn1nc(C(=O)NCc2ccc(C#N)cc2)c2c1C(=O)N(CC1(S(=O)(=O)C(C)(C)CN3CCOCC3)CC1)CC2 [Example 61, N-(4-Cyanobenzyl)-1-methyl-6-((1-((2-methyl-1-morpholinopropan-2-yl)sulfonyl)cyclopropyl)methyl)-7-oxo-4,5,6,7-tetrahydro-1H-pyrazolo[3,4-c]pyridine-3-carboxamide] here?
Answer: 75 nM

Question: CO[C@@H]1CCN(CC(C)(C)S(=O)(=O)C2(CN3CCc4c(C(=O)NCc5ccc(C#N)cc5)nn(C)c4C3=O)CC2)C1 [Example 62, (R)-N-(4-cyanobenzyl)-6-((1-((1-(3-methoxypyrrolidin-1-yl)-2-methylpropan-2-yl)sulfonyl)cyclopropyl)methyl)-1-methyl-7-oxo-4,5,6,7-tetrahydro-1H-pyrazolo[3,4-c]pyridine-3-carboxamide] was tested. Which IC50 did it give?
Answer: 139 nM

Question: For Cn1nc(C(=O)NCc2ccc(C#N)cc2)c2c1C(=O)N(CC1(S(=O)(=O)C(C)(C)CN3CC4CC(C3)O4)CC1)CC2 [Example 63, 6-((1-((1-(6-Oxa-3-azabicyclo[3.1.1]heptan-3-yl)-2-methylpropan-2-yl)sulfonyl)cyclopropyl)methyl)-N-(4-cyanobenzyl)-1-methyl-7-oxo-4,5,6,7-tetrahydro-1H-pyrazolo[3,4-c]pyridine-3-carboxamide], which IC50 is on record?
Answer: 100 nM

Question: With Cn1nc(C(=O)NCc2ccc(C#N)cc2)c2c1C(=O)N(CC1(S(=O)(=O)C(C)(C)CN3CC4CC3CO4)CC1)CC2 (stereo not shown) [Example 64, 6-((1-((1-(2-Oxa-5-azabicyclo[2.2.1]heptan-5-yl)-2-methylpropan-2-yl)sulfonyl)cyclopropyl)methyl)-N-(4-cyanobenzyl)-1-methyl-7-oxo-4,5,6,7-tetrahydro-1H-pyrazolo[3,4-c]pyridine-3-carboxamide] as the compound, how does the IC50 read?
Answer: 60 nM

Question: How did the IC50 turn out when Cn1nc(C(=O)NCc2ccc(C#N)cc2)c2c1C(=O)N(CC1(S(=O)(=O)C(C)(C)CN3CC(O)C3)CC1)CC2 [Example 65, N-(4-Cyanobenzyl)-6-((1-((1-(3-hydroxyazetidin-1-yl)-2-methylpropan-2-yl)sulfonyl)cyclopropyl)methyl)-1-methyl-7-oxo-4,5,6,7-tetrahydro-1H-pyrazolo[3,4-c]pyridine-3-carboxamide] was run?
Answer: 52 nM

Question: For COC1CN(CC(C)(C)S(=O)(=O)C2(CN3CCc4c(C(=O)NCc5ccc(C#N)cc5)nn(C)c4C3=O)CC2)C1 [Example 66, N-(4-Cyanobenzyl)-6-((1-((1-(3-methoxyazetidin-1-yl)-2-methylpropan-2-yl)sulfonyl)cyclopropyl)methyl)-1-methyl-7-oxo-4,5,6,7-tetrahydro-1H-pyrazolo[3,4-c]pyridine-3-carboxamide], which IC50 is on record?
Answer: 50 nM
